Tested on: 883617-216-R-J1-PDC complex spheroid viability
Assay: Anticancer human tumor 883617-216-R-J1-PDC patient-derived bladder carcinoma cell line growth inhibition
Conditions: for IC50: curve of first compound; for viability, T/C: stronger effect = lower value
Outline: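 Multicellular complex spheroids of tumor cells with human endothelial cells (HUVEC) and mesenchymal stem cells; the LSD1 inhibitor iadademstat was combined with standard-of-care or investigational agents. Top concentration at or near clinical Cmax, half-log dilutions; final DMSO ≤0.25%.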

[1] = second compound 0.1 µM, first compound 0.00949 µM
[2] = second compound 0.1 µM, first compound 0.03 µM
[3] = second compound 0.1 µM, first compound 0.0949 µM
[4] = second compound 0.1 µM, first compound 0.3 µM
[5] = second compound 0.316 µM, first compound 0.00949 µM
[6] = second compound 0.316 µM, first compound 0.03 µM
[7] = second compound 0.316 µM, first compound 0.0949 µM
[8] = second compound 0.316 µM, first compound 0.3 µM
[9] = second compound 1 µM, first compound 0.00949 µM
[10] = second compound 1 µM, first compound 0.03 µM
[11] = second compound 1 µM, first compound 0.0949 µM
[12] = second compound 1 µM, first compound 0.3 µM
[13] = second compound 3.16 µM, first compound 0.00949 µM
[14] = second compound 3.16 µM, first compound 0.03 µM
[15] = second compound 3.16 µM, first compound 0.0949 µM
[16] = second compound 3.16 µM, first compound 0.3 µM
[17] = second compound 10 µM, first compound 0.00949 µM
[18] = second compound 10 µM, first compound 0.03 µM
[19] = second compound 10 µM, first compound 0.0949 µM
[20] = second compound 10 µM, first compound 0.3 µM
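Also: exposure lasted seven days after three days of spheroid growth.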
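For viability, T/C in this document: 100% = DMSO vehicle control luminescence.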

CCN(c1cc(-c2ccc(CN3CCOCC3)cc2)cc(C(=O)NCc2c(C)cc(C)[nH]c2=O)c1C)C1CCOCC1 + NC1CC1c1ccc(-c2cccc(O)c2)cc1
IC50 (second compound 0.1 µM): > 3000 nM
IC50 (second compound 0.316 µM): > 3000 nM
IC50 (second compound 1 µM): > 3000 nM
IC50 (second compound 3.16 µM): > 3000 nM
IC50 (second compound 10 µM): > 3000 nM
viability, T/C [1]: 86.5%
viability, T/C [2]: 84.8%
viability, T/C [3]: 81.9%
viability, T/C [4]: 73.5%
viability, T/C (second compound 0.1 µM, first compound 0.949 µM): 79.4%
viability, T/C (second compound 0.1 µM, first compound 3 µM): 66.9%
viability, T/C [5]: 96.8%
viability, T/C [6]: 92.2%
viability, T/C [7]: 83.4%
viability, T/C [8]: 89.9%
viability, T/C (second compound 0.316 µM, first compound 0.949 µM): 86%
viability, T/C (second compound 0.316 µM, first compound 3 µM): 70%
viability, T/C [9]: 105%
viability, T/C [10]: 93%
viability, T/C [11]: 88.2%
viability, T/C [12]: 91.5%
viability, T/C (second compound 1 µM, first compound 0.949 µM): 88.6%
viability, T/C (second compound 1 µM, first compound 3 µM): 79.2%
viability, T/C [13]: 99.7%
viability, T/C [14]: 83.3%
viability, T/C [15]: 73.8%
viability, T/C [16]: 83.2%
viability, T/C (second compound 3.16 µM, first compound 0.949 µM): 88.6%
viability, T/C (second compound 3.16 µM, first compound 3 µM): 78.5%
viability, T/C [17]: 78.4%
viability, T/C [18]: 72.9%
viability, T/C [19]: 69.2%
viability, T/C [20]: 63%
viability, T/C (second compound 10 µM, first compound 0.949 µM): 71.1%
viability, T/C (second compound 10 µM, first compound 3 µM): 61.1%

Nc1ncn(C2CC(O)C(CO)S2)c(=O)n1 (stereo not given) + NC1CC1c1ccc(-c2cccc(O)c2)cc1
IC50 (second compound 0.1 µM): 27.6 nM
IC50 (second compound 0.316 µM): 40.7 nM
IC50 (second compound 1 µM): 33.9 nM
IC50 (second compound 3.16 µM): 24.5 nM
IC50 (second compound 10 µM): 18.5 nM
viability, T/C (second compound 0.1 µM, first compound 0.000949 µM): 115%
viability, T/C (second compound 0.1 µM, first compound 0.003 µM): 97.1%
viability, T/C [1]: 67.2%
viability, T/C [2]: 49.5%
viability, T/C [3]: 37.6%
viability, T/C [4]: 29.5%
viability, T/C (second compound 0.316 µM, first compound 0.000949 µM): 119%
viability, T/C (second compound 0.316 µM, first compound 0.003 µM): 89.5%
viability, T/C [5]: 77.9%
viability, T/C [6]: 51.3%
viability, T/C [7]: 38.1%
viability, T/C [8]: 30.5%
viability, T/C (second compound 1 µM, first compound 0.000949 µM): 106%
viability, T/C (second compound 1 µM, first compound 0.003 µM): 101%
viability, T/C [9]: 64%
viability, T/C [10]: 57.5%
viability, T/C [11]: 36%
viability, T/C [12]: 29.4%
viability, T/C (second compound 3.16 µM, first compound 0.000949 µM): 92.8%
viability, T/C (second compound 3.16 µM, first compound 0.003 µM): 95.8%
viability, T/C [13]: 64.2%
viability, T/C [14]: 47.1%
viability, T/C [15]: 38.7%
viability, T/C [16]: 26.3%
viability, T/C (second compound 10 µM, first compound 0.000949 µM): 78.4%
viability, T/C (second compound 10 µM, first compound 0.003 µM): 76.7%
viability, T/C [17]: 56.7%
viability, T/C [18]: 45%
viability, T/C [19]: 36.6%
viability, T/C [20]: 33.1%

O=C(C=Cn1cnc(-c2cc(C(F)(F)F)cc(C(F)(F)F)c2)n1)NNc1cnccn1 + NC1CC1c1ccc(-c2cccc(O)c2)cc1
IC50 (second compound 0.1 µM): 6.13 nM
IC50 (second compound 0.316 µM): 5.37 nM
IC50 (second compound 1 µM): 5.18 nM
IC50 (second compound 3.16 µM): 5.05 nM
IC50 (second compound 10 µM): 4.37 nM
viability, T/C (second compound 0.1 µM, first compound 0.00316 µM): 76.8%
viability, T/C (second compound 0.1 µM, first compound 0.01 µM): 28.8%
viability, T/C (second compound 0.1 µM, first compound 0.0316 µM): 23.8%
viability, T/C (second compound 0.1 µM, first compound 0.1 µM): 17.6%
viability, T/C (second compound 0.1 µM, first compound 0.316 µM): 15.6%
viability, T/C (second compound 0.1 µM, first compound 1 µM): 15.6%
viability, T/C (second compound 0.316 µM, first compound 0.00316 µM): 65.9%
viability, T/C (second compound 0.316 µM, first compound 0.01 µM): 31.3%
viability, T/C (second compound 0.316 µM, first compound 0.0316 µM): 19.1%
viability, T/C (second compound 0.316 µM, first compound 0.1 µM): 14.8%
viability, T/C (second compound 0.316 µM, first compound 0.316 µM): 16%
viability, T/C (second compound 0.316 µM, first compound 1 µM): 14.3%
viability, T/C (second compound 1 µM, first compound 0.00316 µM): 66.5%
viability, T/C (second compound 1 µM, first compound 0.01 µM): 28.1%
viability, T/C (second compound 1 µM, first compound 0.0316 µM): 18.4%
viability, T/C (second compound 1 µM, first compound 0.1 µM): 15.9%
viability, T/C (second compound 1 µM, first compound 0.316 µM): 16.3%
viability, T/C (second compound 1 µM, first compound 1 µM): 15.5%
viability, T/C (second compound 3.16 µM, first compound 0.00316 µM): 65.1%
viability, T/C (second compound 3.16 µM, first compound 0.01 µM): 28.1%
viability, T/C (second compound 3.16 µM, first compound 0.0316 µM): 17.5%
viability, T/C (second compound 3.16 µM, first compound 0.1 µM): 16%
viability, T/C (second compound 3.16 µM, first compound 0.316 µM): 14.6%
viability, T/C (second compound 3.16 µM, first compound 1 µM): 14.3%
viability, T/C (second compound 10 µM, first compound 0.00316 µM): 60%
viability, T/C (second compound 10 µM, first compound 0.01 µM): 24.8%
viability, T/C (second compound 10 µM, first compound 0.0316 µM): 18.2%
viability, T/C (second compound 10 µM, first compound 0.1 µM): 15.1%
viability, T/C (second compound 10 µM, first compound 0.316 µM): 15.4%
viability, T/C (second compound 10 µM, first compound 1 µM): 15.8%
